In brackets after ≈: the same amount, converted by molar mass. Entries after “also recorded” stand apart in the source; their conditions may differ. Starred links: 1 amine or outer side, 2 acyl side, 3 side chain; linkers in the order of their positions; H or OH if unused. Non-standard residues stand in square brackets, D forms with d. Residues, ends and D or L forms follow the SMILES beside them. No end group written: not given here. ξ: configuration not given here. *: point of attachment. K(Pam) = CCCCCCCCCCCCCCCC(=O)NCCCC[C@H](N[*:1])C(=O)[*:2]; X1 = CCCCCCCCCCCCCCCC(=O)OCC(C*)OC(=O)CCCCCCCCCCCCCCC; Palmitoyl = CCCCCCCCCCCCCCCC(=O)*; AEEA = NCCOCCOCC(=O)O; ξC = NC(CS)C(=O)O
Tests used:
[1] = Cellular toxicity, lactate dehydrogenase (LDH) assay; type: cell-based
Procedure: (§1) Methods: Cellular toxicity was determined by Lactate dehydrogenase concentration and WST-1 cell proliferation assay as well as hemolysis assay.

[2] = Cellular toxicity, WST-1 cell proliferation assay; type: cell-based
Procedure: as §1

[3] = test system: red blood cell; test: Hemolysis assay; type: cell-based
Procedure: as §1

[4] = Acute tolerability after oral administration; type: in vivo, C57BL/6N mice
Description: Methods: C57BL/6N mice were generated and maintained (including breeding and housing) at the animal facilities of the Helmholtz Centre for Infection Research (HZI) under enhanced specific pathogen-free (SPF) conditions (Stehr et al., 2009). Animals used in the experiments were gender and age matched. Female and male mice with an age of 8-12 weeks were used. Sterilized food and water ad libitum were provided. Mice were kept under a strict 12-hour light cycle (lights on at 7:00 am and off at […]) and housed in groups of two to six mice per cage. All mice were euthanized by asphyxiation with CO2 and cervical dislocation. All animal experiments were performed in agreement with the local government of Lower Saxony, Germany (approved permission No. 33.19-42502-04-18/2499).
Age- and gender-matched mice received two doses of peptides (0, 125 μg or 250 μg) solved in 100 μl PBS orally per day. Bodyweight and appearance were recorded. The following day, mice were sacrificed and stomach, kidney, spleen, liver, small intestine, cecum and colon were removed for histological scoring. Around 1 ml of blood was taken from the heart to measure inflammatory markers including creatinine in the kidney and the enzyme levels of glutamate-oxalacetate-transaminase (GOT) in the liver.

[5] = test system: bacteria from the ESKAPE panel; type: cell-based
Procedure: Methods: Broth microdilution assay. Log-phase bacteria were collected by centrifugation (2500 rpm, 10 min, 4° C.), washed twice with 10 mM sodium phosphate buffer containing 1% (w/v) TSB and the optical density at 600 nm was adjusted to 0.1. Approximately 5×10^5 CFU/ml bacteria were incubated with serial peptide concentrations (1.17-150 μM) in a final volume of 100 μl in 10 mM sodium phosphate buffer containing 1% (w/v) TSB for 2 hours at 37° C. After incubation, 100 μl of 6% TSB (w/v) was added and absorbance was measured at 600 nm (Tecan, Switzerland) and monitored for 18 hours. Afterwards, 100 μl per well was plated on LB agar to determine the number of viable bacteria microbiologically. Bactericidal activity was expressed as the LC99.9, the lowest concentration that killed ≥99.9% of bacteria.

[6] = test system: C. albicans; test: Broth microdilution assay, antifungal activity; type: cell-based
Procedure: (§2) Methods: Broth microdilution assay. Candida was cultured in TSB over night at 37° C., centrifuged (1500 rpm, 10 min, RT) and washed twice with 10 mM sodium phosphate buffer containing 1% (w/v) TSB. Candida cells were counted and approximately 5×10^5 CFU/ml fungi were incubated with serial peptide concentrations (1.17-150 μM) in a final volume of 100 μl in 10 mM sodium phosphate buffer containing 1% (w/v) TSB for 2 hours at 37° C. After incubation, 100 μl of 6% TSB (w/v) was added and absorbance was measured at 600 nm (Tecan, Switzerland) and monitored for 18 hours. Afterwards, 100 μl per well was plated on YPD agar to determine the number of viable bacteria microbiologically.

[7] = test system: C. tropicalis; test: Broth microdilution assay, antifungal activity; type: cell-based
Procedure: as §2

[8] = test system: several pathogenic bacteria; test: Radial diffusion assay and MIC screening for antimicrobial activity; type: cell-based; conditions: radial diffusion assay and MIC determinations
Procedure: (§3) Methods: Log-phase bacteria were cultivated for up to 18 hours in TSB (TSB, Becton Dickinson, USA), washed and diluted to 4×10^6 CFU in 10 ml agar. Bacteria were incubated in 10 ml of 10 mM sodium phosphate, pH 7.4, containing 0.3 mg/ml of TSB powder and 1% (w/v) low EEO-agarose (AppliChem). Lipopeptides were pipetted into punched wells and diffused into the gel for 3 hours at 37° C. After that, a nutrient-rich gel with 6% TSB (w/v) and 1% agarose in 10 mM sodium phosphate buffer was poured on top of the first gel and incubated for up to 24 hours at 37° C. Then the diameter of inhibition zones was measured.
(§4) Clinical isolates of A. baumannii DSM30007, E. faecium DSM2918, K. pneumoniae DSM30104 and P. aeruginosa DSM1117 were provided by the Department for Laboratory Medicine at Robert-Bosch-Hospital Stuttgart, Germany. C. rodentium DSM16636 and E. coli DSM8695 were obtained from the Deutsche Sammlung von Mikroorganismen and Zellkultur GmbH Braunschweig, Germany. […]

[9] = test system: S. aureus NCTC8325; test: Membrane potential assay with DiOC2(3); type: cell-based; conditions: 30 min treatment
Procedure: S. aureus NCTC8325 was grown to log-phase in LB+0.1% glucose, harvested and the optical density at 600 nm (OD600) was adjusted to 0.5. Bacteria were incubated with 30 μM 3,3′-diethyloxacarbocyanine iodide (DiOC2(3), Invitrogen™) for 15 min in the dark and treated with serial peptide concentrations for 30 min. The protonophore carbonyl cyanide m-chlorophenyl hydrazone (CCCP, Sigma Aldrich) was used as a positive control and DMSO or 0.01% acetic acid as negative control. Fluorescence was measured at an excitation wavelength of 485 nm and two emission wavelengths, 530 nm (green) and 630 (nm) red, using a microplate reader (Tecan, Switzerland).

[10] = test system: ypuA promoter; test: ypuA promoter luciferase reporter gene assay; type: cell-based, Bacillus subitilis 1S34
Procedure: A specific bacterial reporter strain with the genetic background of Bacillus subitilis 1S34, carrying the promoter of the ypuA gene, fused to the firefly luciferase reporter gene, was used to identify cell envelope-related damage caused by treatment with antimicrobial compounds. Bacteria were cultured to an OD600 of 0.9 in LB broth with 5 μg/ml erythromycin at 37° C. and diluted to an OD600 of 0.02. Serial peptide dilutions (0.15-150 μM) were prepared in a microtiter plate and incubated with the adjusted bacterial suspension at 37° C. for 1 hour. Subsequently, citrate buffer (0.1 M, pH 5) containing 2 mM luciferin (Iris Biotech, Germany) was added and luminescence was measured using a microplate reader (Tecan, Switzerland).

[11] = test system: S. Typhimurium; test: Radial diffusion assay; type: cell-based
Procedure: as §3, §4

Molecule | LDH activity (cytotoxicity) [1] | metabolic activity (WST-1 assay) [2] | red blood cell disruption (hemolysis) [3] | further results
CCCCCCCCCCCCCCCC(=O)N[C@@H](CCCNC(=N)N)C(=O)NCC(=O)N[C@@H](CCCCN)C(=O)N[C@@H](C)C(=O)N[C@@H](CCCCN)C(=O)N[C@@H](CS)C(=O)N[C@@H](CS)C(=O)N[C@@H](CCCCN)C(=O)O [Pam-2] (Palmitoyl-RGKAKCCK-OH) | some LDH activity | modest decrease | minimal red blood cell disruption | –
CCCCCCCCCCCCCCCC(=O)NCCOCCOCC(=O)N[C@@H](CCCNC(=N)N)C(=O)NCC(=O)N[C@@H](CCCCN)C(=O)N[C@@H](C)C(=O)N[C@@H](CCCCN)C(=O)N[C@@H](CS)C(=O)N[C@@H](CS)C(=O)N[C@@H](CCCCN)C(=O)O [Pam-3] ({Palmitoyl-AEEA}-RGKAKCCK-OH) | little LDH activity | slight decrease | modest red blood cell disruption | histological examination of gastrointestinal, liver and kidney tissues ([4]; mouse, in vivo, po): no alterations; serum level of creatinine ([4]; mouse, in vivo, po): no significant differences between the groups; serum level of glutamic oxaloacetic transaminase (GOT) ([4]; mouse, in vivo, po): no significant differences between the groups; acute toxicity (histological analysis and serum markers) ([4]; oral, mice, 24 hours after application, 125 or 250 μg doses): did not reveal any acute toxicity; also recorded: No danger signals; MIC [5]: 9.38 µM (≈ 12 µg/mL)
CCCCCCCCCCCCCCCC(=O)NC(CSCC(COC(=O)CCCCCCCCCCCCCCC)OC(=O)CCCCCCCCCCCCCCC)C(=O)N[C@@H](CCCNC(=N)N)C(=O)NCC(=O)N[C@@H](CCCCN)C(=O)N[C@@H](C)C(=O)N[C@@H](CCCCN)C(=O)N[C@@H](CS)C(=O)N[C@@H](CS)C(=O)N[C@@H](CCCCN)C(=O)O (stereo partly drawn) [Pam-4] (Palmitoyl-[ξC](X1)RGKAKCCK-OH) | no LDH activity | normal metabolic activity | minimal red blood cell disruption | –
Pam-Lys(Pam)-RGKAKCCK ({Palmitoyl-K(Pam)}-RGKAKCCK; cysteine pairing not given here) [Pam-5, octapeptide lipopeptide containing lysine as spacer] | no LDH activity | normal metabolic activity | minimal red blood cell disruption | antifungal activity against C. albicans [6]: modest activity; also recorded: some efficacy; antifungal activity against C. tropicalis [7]: good activity; also recorded: highly effective; antimicrobial activity, inhibition of bacterial growth of the tested strains [8]: generally inactive; breakdown of the membrane potential [9]: most pronounced; bactericidal activity ([5]; broth microdilution, 1.17-150 μM peptide, 2 hours): moderate effects; cell envelope damage (ypuA reporter) [10]: little cell envelope damage
RGKAKCCK (Cleavage product of defensin) [octapeptide, the C-terminal eight amino acids of human beta-defensin 1, non-modified] | – | – | – | inhibition of S. Typhimurium growth [11]: failed to inhibit

— US20230365639A1, “DEFENSIN FRAGMENT DERIVED LIPOPEPTIDES FOR TREATMENT OF DRUG-RESISTANT MICROORGANISMS” (priority 2020, published 2023)
